Patent publication US8809550B2, “Androgen receptor antagonists and uses thereof” (priority 2009, dated 2014)

Experiments:
[1] = system: Prostate-specific Antigen (PSA) production in LNCaP cells; assay: PSA assay: inhibition of PSA production in LNCaP cells (ELISA); type: cell-based; conditions: Homo sapiens, 72 h, R1881 1 ng/ml, three days, seven point assay
Description: (§1) PSA Assay (Inhibition Test of the Compound of the Present Invention on Prostate-Specific Antigen (PSA) Production in Various Prostate Cancer Cells)
(§2) Androgen dependent LNCaP and 22RV1 cells were purchased from the American Type Culture Collection (ATCC, Manassas, Va.). These cells were grown in RPMI 1640 medium supplemented with 10% fetal bovine serum (FBS), 100 U/mL penicillin, 100 μg/mL streptomycin, and 0.25 μg/mL amphotericin B. The cells were maintained at 37° C. and 5% CO2. LNCaP cells between passage 20 and 35, and 22RV1 cells between passage 30 and 50 were used for experiments. LNCaP is a hormone sensitive cell line, while 22RV1 is a hormone refractory prostate cancer cell line, which derived from a primary prostate tumor. This cell line was isolated from a xenograft (CWR22R-2152) that was serially propagated in mice after castration-induced regression and relapse of the parental, androgen-dependent CWR xenograft. For the PSA assay, human prostate cancer cells LNCaP or 22RV1 were seeded in a 96-well plate at a concentration of 5000 cells/100 μl/well. On the following day, Methyltrienolone (R1881, AR agonist) (final concentration 1 ng/ml), test compounds or bicalutamide (Casodex®, AstraZeneca) (final concentration 0.005 to 20 μM) were added. Three days after the addition, the concentration of PSA in the supernatant of the culture solution was measured by ELISA. ELISAs for human PSA in culture medium were performed using the ultra-sensitive assay procedure and reagents in the Active™ PSA assay kit (Diagnostic Systems Laboratories Inc., Webster, Tex.). Culture medium and standards (200 μl/well) were incubated in antibody-coated plates for 2 h at room temperature on a Titer plate shaker at 500-600 rpm. Wells were then washed five times. The HRP conjugate was diluted 1:20 with assay buffer, and 100 μl was added to all wells. The plates were incubated for 30 min at room temperature on the shaker and washed as before, and 100 μl TMB (3,3′,5,5′-tetramethylbenzidine, 0.4 g/l) was added. The plates were incubated for 10 min on the shaker, and the reaction was terminated with 100 μl stop solution. The plates were read using a plate reader at 450 nm with a 650 nm reference filter. PSA levels were normalized for differences in growth of LNCaP or 22RV1 cells following various treatments as determined by the MTS assay. IC50 of PSA was calculated based on a seven point assay (concentrations of tested compound) and expressed as micromolar (uM). Results on 22RV1 cells are shown as percent inhibition at 2 micromolar (uM). ND means not determined

[2] = system: Prostate-specific Antigen (PSA) production in 22RV1 cells; assay: PSA assay: inhibition of PSA production in 22RV1 cells (ELISA); type: cell-based; conditions: Homo sapiens, 72 h, R1881 1 ng/ml, three days
Description: as §1
as §2, with “Results on 22RV1 cells are shown as percent inhibition at 2 micromolar (uM).” left out

LNCaP cells = assay: Cell viability assay, LNCaP cells; type: cell-based; conditions: Homo sapiens, LNCaP, 48 h, read-out: Inhibition of cell viability, LNCaP % inhibition at 2.5 uM
Description: (§3) LNCaP and 22RV1 cells were maintained in RPMI 1640 medium supplemented with 10% fetal bovine serum (FBS), 100 U/mL penicillin, 100 μg/mL streptomycin, and 0.25 μg/mL amphotericin B, splitting cells when they reached 80-90% confluence. In order to test compounds, 10,000 cells/well were plated in 96 cell culture plates using 100 ul/well plating medium, cultured overnight at 37° C. in a cell culture incubator. After carefully remove plating medium, 80 ul/well of pre-warmed assay medium was added, followed by adding 10 ul/well test compounds or bicalutamide (final concentration from 20 uM to 0.1 uM), incubated at 37° C. for 30 minutes, then adding 10 ul/well freshly prepared Methyltrienolone (R1881, AR agonist) (final concentration 1 ng/ml) to each well, incubate at 37° C. for 48-hour. At the end of incubation, 20 μl MTT (2.5 mg/ml in PBS) was added to each well, and the cells were further incubated for 2 h at 37 C to allow a complete reaction between the dye and the enzyme mitochondrial dehydrogenase in the viable cells. After removal of the residual dye and medium, 100 μl dimethylsulfoxide was added to each well, and the absorbance at 570 nm was measured with an microplate reader. The fold induction over background by 1 nM R1881 in the absence of test compounds is standardized as 100% and experimental result is expressed as percentage of inhibition by testing compounds at 2.5 micromolar (uM).

22RV1 cells = assay: Cell viability assay, 22RV1 cells; type: cell-based, human; conditions: Homo sapiens, 22Rv1, 48 h, read-out: Inhibition of cell viability, 22RV1 % inhibition at 2.5 uM
Description: as §3

Row | Structure (SMILES) | IC50 [1] | inhibition at 2 µM [2] | cytotoxicity at 2.5 µM (LNCaP cells) | cytotoxicity at 2.5 µM (22RV1 cells)
1 | CC1(C)C(=O)N(c2ccc(C#N)c(C(F)(F)F)c2F)C(=S)N1c1ccc(S(C)(=O)=O)cc1 [Example 13, 3-Fluoro-4-[3-(4-methanesulfonyl-phenyl)-4,4-dimethyl-5-oxo-2-thioxo-imidazolidin-1-yl]-2-trifluoromethyl-benzonitrile] | 520 nM | 61% | – | –
2 | CNC(=O)c1ccc(N2C(=S)N(c3ccc(C#N)cc3OC(F)(F)F)C(=O)C23CCC3)cc1F [Example 4, 4-[7-(4-Cyano-2-trifluoromethoxy-phenyl)-8-oxo-6-thioxo-5,7-diaza-spiro[3.4]oct-5-yl]-2-fluoro-N-methyl-benzamide] | 1400 nM | – | – | –
3 | CC1(C)C(=O)N(c2ccc(C#N)c(Cl)c2F)C(=S)N1c1ccc(S(C)(=O)=O)cc1 [Example 16, 2-Chloro-3-fluoro-4-[3-(4-methanesulfonyl-phenyl)-4,4-dimethyl-5-oxo-2-thioxo-imidazolidin-1-yl]-benzonitrile] | 630 nM | 70% | – | –
4 | Cc1ccc(N2C(=S)N(c3ccc(C#N)c(C(F)(F)F)c3F)C(=O)C2(C)C)cn1 [Example 15, 4-[4,4-Dimethyl-3-(6-methyl-pyridin-3-yl)-5-oxo-2-thioxo-imidazolidin-1-yl]-3-fluoro-2-trifluoromethyl-benzonitrile] | 350 nM | 69% | – | –
5 | Cc1ccc(N2C(=S)N(c3ccc(C#N)c(Cl)c3F)C(=O)C2(C)C)cc1F [Example 31, 2-Chloro-3-fluoro-4-[3-(3-fluoro-4-methyl-phenyl)-4,4-dimethyl-5-oxo-2-thioxo-imidazolidin-1-yl]-benzonitrile] | 420 nM | 67% | – | –
6 | CNC(=O)c1ccc(N2C(=S)N(c3ccc(C#N)cc3C)C(=O)C23CCC3)cc1F [Example 6, 4-[7-(4-Cyano-2-methyl-phenyl)-8-oxo-6-thioxo-5,7-diaza-spiro[3.4]oct-5-yl]-2-fluoro-N-methyl-benzamide] | 1500 nM | – | – | –
7 | Cc1ccc(N2C(=S)N(c3ccc(C#N)c(C#N)c3)C(=O)C2(C)C)cc1F [Example 25, 4-[3-(3-Fluoro-4-methyl-phenyl)-4,4-dimethyl-5-oxo-2-thioxo-imidazolidin-1-yl]-phthalonitrile] | 290 nM | 82% | – | –
8 | CNC(=O)c1ccc(N2C(=S)N(c3ccc(C#N)cc3Cl)C(=O)C23CCC3)cc1F [Example 1, 4-[7-(2-Chloro-4-cyano-phenyl)-8-oxo-6-thioxo-5,7-diaza-spiro[3.4]oct-5-yl]-2-fluoro-N-methyl-benzamide] | 2400 nM | 48% | 70% | 31%
9 | CNC(=O)c1ccc(N2C(=S)N(c3ccc(C#N)cc3F)C(=O)C23CCC3)cc1F [Example 5, 4-[7-(4-Cyano-2-fluoro-phenyl)-8-oxo-6-thioxo-5,7-diaza-spiro[3.4]oct-5-yl]-2-fluoro-N-methyl-benzamide] | 1400 nM | – | – | –
10 | CNC(=O)c1ccc(N2C(=S)N(c3cc(F)c(C#N)cc3F)C(=O)C23CCC3)cc1F [Example 3, 4-[7-(4-Cyano-2,5-difluoro-phenyl)-8-oxo-6-thioxo-5,7-diaza-spiro[3.4]oct-5-yl]-2-fluoro-N-methyl-benzamide] | 2100 nM | 21% | – | –
11 | CNC(=O)c1ccc(N2C(=S)N(c3ccc(C#N)cc3C(F)(F)F)C(=O)C23CCC3)cc1F [Example 7, 4-[7-(4-Cyano-2-trifluoromethyl-phenyl)-8-oxo-6-thioxo-5,7-diaza-spiro[3.4]oct-5-yl]-2-fluoro-N-methyl-benzamide] | 1500 nM | – | – | –
12 | Cc1ccc(N2C(=S)N(c3ccc(C#N)c(Cl)c3F)C(=O)C2(C)C)cc1 [Example 29, 2-Chloro-4-(4,4-dimethyl-5-oxo-2-thioxo-3-p-tolyl-imidazolidin-1-yl)-3-fluoro-benzonitrile] | 280 nM | 78% | – | –
13 | COc1c(C#N)ccc(N2C(=O)C(C)(C)N(c3ccc(S(C)(=O)=O)cc3)C2=S)c1F [Example 21, 3-Fluoro-4-[3-(4-methanesulfonyl-phenyl)-4,4-dimethyl-5-oxo-2-thioxo-imidazolidin-1-yl]-2-methoxy-benzonitrile] | 1800 nM | – | – | –
14 | CNC(=O)c1ccc(N2C(=S)N(c3ccc(C#N)c(OC)c3F)C(=O)C2(C)C)cc1F [Example 22, 4-[3-(4-Cyano-2-fluoro-3-methoxy-phenyl)-5,5-dimethyl-4-oxo-2-thioxo-imidazolidin-1-yl]-2-fluoro-N-methyl-benzamide] | 520 nM | 57% | – | –
15 | CNC(=O)c1ccc(N2C(=S)N(c3ccc(C#N)c(C#N)c3)C(=O)C23CCC3)cc1F [Example 9, 4-[7-(3,4-Dicyano-phenyl)-8-oxo-6-thioxo-5,7-diaza-spiro[3.4]oct-5-yl]-2-fluoro-N-methyl-benzamide] | 980 nM | 64% | – | –
16 | Cc1ccc(N2C(=S)N(c3ccc(C#N)c(Cl)c3F)C(=O)C2(C)C)cn1 [Example 17, 2-Chloro-4-[4,4-dimethyl-3-(6-methyl-pyridin-3-yl)-5-oxo-2-thioxo-imidazolidin-1-yl]-3-fluoro-benzonitrile] | 310 nM | 76% | – | –
17 | CC1(C)C(=O)N(c2ccc(C#N)c(C(F)(F)F)c2F)C(=S)N1c1ccc(C#N)cc1 [Example 14, 4-(4,4-Dimethyl-5-oxo-2-thioxo-3-p-cyanophenyl-imidazolidin-1-yl)-3-fluoro-2-trifluoromethyl-benzonitrile] | 490 nM | 71% | – | –
